PMC8252719, “Macrocyclic FKBP51 Ligands Define a Transient Binding Mode with Enhanced Selectivity” (Angewandte Chemie (International Ed. in English), 2021)
Read-outs that look alike come from different tables or passages of the source.

Experiments:
[1] = target: T1, FKBP51FK1 (Homo sapiens, UniProt Q13451); assay: competitive fluorescence polarization assay, FKBP51FK1; type: binding; conditions: ± = standard error from three independent measurements [b] or error from two independent measurements [d], read-out: FKBP51FK1 K i
T1 sequence (Q13451 42-130 limits assumed): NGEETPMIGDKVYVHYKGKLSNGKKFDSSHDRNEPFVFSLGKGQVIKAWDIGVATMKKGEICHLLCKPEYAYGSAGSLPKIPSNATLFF
Method: Table S1. Ki values were determined by a competitive fluoresc ence polarization assay.
4.1 Binding curves of 13a, c and d […]

[2] = target: FKBP12 (Homo sapiens, UniProt P62942); assay: competitive fluorescence polarization assay, FKBP12; type: binding; conditions: for Ki: competitive fluorescence polarization assay, >80 μM = highest measurable concentration before compound precipitation, ± = standard error from three independent measurements, read-out: FKBP12 K i
Chain of FKBP12 (P62942 whole entry): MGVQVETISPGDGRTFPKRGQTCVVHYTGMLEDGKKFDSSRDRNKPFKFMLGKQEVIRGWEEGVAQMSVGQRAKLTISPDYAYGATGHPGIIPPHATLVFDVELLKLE

[3] = target: FKBP12.6 (Homo sapiens, UniProt P68106); assay: competitive fluorescence polarization assay, FKBP12.6; type: binding; conditions: for Ki: competitive fluorescence polarization assay, >80 μM = highest measurable concentration before compound precipitation, ± = standard error from three independent measurements, read-out: FKBP12.6 K i
Chain of FKBP12.6 (P68106 whole entry): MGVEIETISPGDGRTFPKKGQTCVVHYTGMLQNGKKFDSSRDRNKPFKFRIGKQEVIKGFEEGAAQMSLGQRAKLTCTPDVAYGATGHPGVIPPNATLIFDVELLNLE

[4] = target: T1, FKBP51FK1; assay: isothermal titration calorimetry (ITC); type: binding
Method: 1. ITC of compounds 13a and 13d
Figure S1. A) Binding of compound 13a to FKBP51FK1 determined by isothermal titration calorimetry at 25 °C. A 20 µM solution FKBP51FK1 formulated in 20 mM
HEPES pH 8.0, 20 mM NaCl, 5% glycerol and 2% DMSO was placed in the sample cell of a PEAK-ITC instrument. The syringe was filled with a 200 µM solution of
13a formulated in the same buffer. After equilibration the compound was titrated into the sample cell by 12 injection s of 3 µl each. The obtained data was analyzed
Binding of compound 13d to FKBP51FK1 determined by isothermal titration calorimetry at 25 °C. A 13 µM solution FKBP51FK1 formulated in 20 mM HEPES pH
8.0, 20 mM NaCl, 5% glycerol and 2% DMSO was placed in the sample cell of a PEAK -ITC instrument. The syringe was filled with a 10 0 µM solution of 13d
formulated in the same buffer. After equilibration the compound was titrated into the sample cell by 12 injections of 3 µl each. The obtained data was analyzed using […]

[5] = system: IKKα phosphorylation in SIM-A9 cells; assay: IKKα inhibition in SIM-A9 cells (Western blot); type: cell-based, murine; conditions: for concentration at which apparent maximal inhibition of IKKα phosphorylation was already reached: SIM-A9 cells, lowest tested concentration; for inhibition of IKKα phosphorylation (in words) / dose-dependence of inhibition of IKKα phosphorylation: murine microglia SIM-A9 cells, 16 h treatment, Western blot; for inhibition of IKKα phosphorylation (in words): three (macrocycles) or six (SAFit) independent cellular assays
Method: We next explored if the macrocyclic ligands could interfere with the cellular functions of FKBP51. We therefore treated SIM‐A9 cells, which were recently discovered as a SAFit‐sensitive cellular model for stress‐mediated secretory autophagy. ^[24] […] (Figure 2 F and S6C). […]
5.2 IKKα inhibition in SIM-A9 cells
Cell culture and treatments
Murine microglia SIM-A9 cells were cultured at 37 °C, 5% CO2 in Dulbecco's Modified Eagle Medium (DMEM) high glucose with GlutaMAX (Thermo Fisher Scientific, 10566016), supplemented with 1 mM sodium pyruvate (Thermo Fisher Scientific, 11360-070), 10% fetal bovine serum (PAN Biotech, P30-8500), and 1% antibiotic-antimycotic (Thermo Fisher Scientific, 15240-062).
For the preparation of whole-cell lysates, confluent SIM-A9 cell cultures treated with the indicated compounds for 16 h in the above mentioned growth medium, were washed two times with ice-cold DPBS (Thermo Fisher Scientific, 14190-144) and lysed in an appropriate volume of RIPA buffer (Thermo Fisher Scientific, 89901), freshly supplemented with 1x cOmplete™ EDTA-free protease inhibitor cocktail (Roche, 4693132001) and 1x PhosSTOP™ phosphatase inhibitor cocktail (Roche, 4906837001) for 20 min on ice.
Subsequently, samples were centrifuged for 10 min at 4°C at 13000 rpm. The resulting supernatants were transferred to new 1.5 ml reaction tubes and prepared for separation with an SDS-PAGE system and analyzed by immunoblotting.
SDS-PAGE and immunoblotting
Separation of proteins was performed with the Criterion™ Vertical Electrophoresis Cell System (Bio-Rad, 1656001) on 4–20% Criterion™ TGX™ Precast Midi Protein Gels (Bio-Rad, 5671095). Immunoblotting was performed with the Trans-Blot Turbo Transfer System (Bio-Rad, 1704150) on 0.2 µm PVDF Trans-Blot Turbo Transfer Membranes (Bio-Rad, 1704157). For immunodetection, membranes were placed in TBS, supplemented with 0.05% Tween (Sigma-Aldrich, P9416) and 5% non-fat milk (Carl Roth, T145.1) for 1 h at RT and then incubated with the primary antibody diluted in TBS-T overnight at 4°C. Following primary antibodies were used:
Phospho-IKKα S176/phospho-IKKβ S177 (1:1000, Cell Signaling Technology, 2078), IKKα (1:1000, Cell Signaling Technology, 1682) and GAPDH (1:1000, Cell Signaling Techology, 5174).
Then, immunoblots were washed and probed with horseradish peroxidase- conjugated secondary antibody (1:10000, Cell Signaling Technology, 7074) for 1 h at RT. Immunoreactive protein bands were visualized using Clarity Western ECL Substrate (Bio-Rad, 1705061) or Clarity Max Western ECL Substrate (Bio-Rad, 1705062). Determination of the band intensities was performed with […]

[6] = fluorescence polarization assay

SMILES | Ki [1] | Ki [2] | Ki [3] | inhibition of IKKα phosphorylation (in words) [5] | other results
COc1ccc(CCC2OC(=O)C3CCCCN3C(=O)C(C3CCCCC3)CC(O)C(O)COCCOc3cccc2c3)cc1OC (mixture of isomers) [9 g] | 1.2 µM | – | – | – | binding to FKBP12 (in words) [2, 6]: did not bind; binding to FKBP12.6 (in words) [3, 6]: did not bind
COc1ccc(CC[C@H]2OC(=O)[C@@H]3CCCCN3C(=O)[C@@H](C3CCCCC3)NC(=O)CNC(=O)COc3cccc2c3)cc1OC [13 a] | – | > 80 µM | > 80 µM | – | Ki ([1]; SEM): 2.3 ± 0.05 µM; Kd ([4]; 25 °C, 20 mM HEPES pH 8.0, 20 mM NaCl, 5% glycerol, 2% DMSO, one-site binding model, mean ± SD from 3 independent experiments, SD, read-out: Kd-value for FKBP51FK1 by ITC): 3.6 ± 0.9 µM; Kd ([4]; isothermal calorimetry, enthalpy-driven, read-out: K d for FKBP51 by ITC): 3.6 µM
COc1ccc(CC[C@H]2OC(=O)[C@@H]3CCCCN3C(=O)[C@@H](C3CCCCC3)NC(=O)[C@@H](C)NC(=O)COc3cccc2c3)cc1OC [13 b, (2R,5S,12R,15R)-12-cyclohexyl-2-[2-(3,4-dimethoxyphenyl)ethyl]-15-methyl-3,19-dioxa-10,13,16-triazatricyclo[18.3.1.0⁵,¹⁰]tetracosa-1(24),20,22-triene-4,11,14,17-tetrone] | – | > 80 µM | > 80 µM | – | –
COc1ccc(CC[C@H]2OC(=O)[C@@H]3CCCCN3C(=O)[C@@H](C3CCCCC3)NC(=O)C(C)(C)NC(=O)COc3cccc2c3)cc1OC [13 c] | – | > 80 µM | > 80 µM | inhibited | Ki ([1]; SEM): 0.29 ± 0.05 µM; concentration at which apparent maximal inhibition of IKKα phosphorylation was already reached [5]: ≤ 1 µM
COc1ccc(CC[C@H]2OC(=O)[C@@H]3CCCCN3C(=O)[C@@H](C3CCCCC3)NC(=O)C3(CCC3)NC(=O)COc3cccc2c3)cc1OC [13 e] | 0.4 µM | > 80 µM | > 80 µM | inhibited | dose-dependence of inhibition of IKKα phosphorylation [5]: clear dose‐dependence
COc1ccc(CC[C@H]2OC(=O)[C@@H]3CCCCN3C(=O)[C@@H](C3CCCCC3)NC(=O)C3(CCCC3)NC(=O)COc3cccc2c3)cc1OC [13 f] | 1.3 µM | > 80 µM | > 80 µM | – | –
COc1ccc(CC[C@H]2OC(=O)[C@@H]3CCCCN3C(=O)[C@@H](C3CCCCC3)NC(=O)CN(C)C(=O)COc3cccc2c3)cc1OC [13 g] | 3.1 µM | > 80 µM | > 80 µM | – | –
COc1ccc(CC[C@H]2OC(=O)[C@@H]3CCCCN3C(=O)[C@@H](C3CCCCC3)NC(=O)C(C)(C)N(C)C(=O)COc3cccc2c3)cc1OC [13 h] | 0.37 µM | > 80 µM | > 80 µM | inhibited | concentration at which apparent maximal inhibition of IKKα phosphorylation was already reached [5]: ≤ 1 µM
COc1ccc(CC[C@H]2OC(=O)[C@@H]3CCCCN3C(=O)[C@@H](C3CCCCC3)NC(=O)[C@H]3CCCN3C(=O)COc3cccc2c3)cc1OC [13 i, (9R,12R,19S,22R)-12-cyclohexyl-22-[2-(3,4-dimethoxyphenyl)ethyl]-2,21-dioxa-5,11,14-triazatetracyclo[21.3.1.0⁵,⁹.0¹⁴,¹⁹]heptacosa-1(26),23(27),24-triene-4,10,13,20-tetrone] | – | > 80 µM | > 80 µM | inhibited | dose-dependence of inhibition of IKKα phosphorylation [5]: clear dose‐dependence
COc1ccc(CC[C@H]2OC(=O)[C@@H]3CCCCN3C(=O)[C@@H](C3CCCCC3)NC(=O)[C@H](C)NC(=O)COc3cccc2c3)cc1OC [13 j, (2R,5S,12R,15S)-12-cyclohexyl-2-[2-(3,4-dimethoxyphenyl)ethyl]-15-methyl-3,19-dioxa-10,13,16-triazatricyclo[18.3.1.0⁵,¹⁰]tetracosa-1(24),20,22-triene-4,11,14,17-tetrone] | – | > 80 µM | > 80 µM | – | –
COc1ccc(CC[C@H]2OC(=O)[C@@H]3CCCCN3C(=O)[C@@H](C3CCCCC3)NC(=O)[C@@H]3CCCN3C(=O)COc3cccc2c3)cc1OC [13 k, (9S,12R,19S,22R)-12-cyclohexyl-22-[2-(3,4-dimethoxyphenyl)ethyl]-2,21-dioxa-5,11,14-triazatetracyclo[21.3.1.0⁵,⁹.0¹⁴,¹⁹]heptacosa-1(26),23(27),24-triene-4,10,13,20-tetrone] | – | > 80 µM | > 80 µM | – | –
COc1ccc(CC[C@H]2OC(=O)[C@@H]3CCCCN3C(=O)[C@@H](C3CCCCC3)NC(=O)CCNC(=O)COc3cccc2c3)cc1OC [13 l] | 7.4 µM | > 80 µM | > 80 µM | – | –
COc1ccc(CC[C@@H](OC(=O)[C@@H]2CCCCN2C(=O)[C@H](c2cc(OC)c(OC)c(OC)c2)C2CCCCC2)c2cccc(OCC(=O)O)c2)cc1OC [SAFit1, reference compound] | – | – | – | inhibited | Ki ([1]; SEM): 0.004 ± 0.001 µM; Ki ([2]; SEM): 0.163 ± 0.009 µM; Ki ([3]; SEM): 0.019 ± 0.002 µM; dose-dependence of inhibition of IKKα phosphorylation [5]: clear dose‐dependence
COc1ccc(CC[C@@H](OC(=O)[C@@H]2CCCCN2C(=O)[C@H](c2cc(OC)c(OC)c(OC)c2)C2CCCCC2)c2cccc(OCCN3CCOCC3)c2)cc1OC [SAFit2, reference compound] | – | – | – | inhibited | dose-dependence of inhibition of IKKα phosphorylation [5]: clear dose‐dependence
